Results reported in PMC4762250, “Novel cis-selective and non-epimerisable C3 hydroxy azapodophyllotoxins targeting microtubules in cancer cells” (European Journal of Medicinal Chemistry, 2016).
Where two headings read alike, the source gives them in different places.

Legend:
[1] = tested on: human breast cancer cell line MCF-7; test: Oncotest propidium iodide monolayer cell proliferation assay, MCF-7; format: cell-based
Description: (§1) The anticancer activity of compounds (8a-q) was evaluated using the Oncotest monolayer assay in the human prostate cancer cell line 22Rv1 and the human breast cancer cell line MCF-7, as an outsourced service. […] Antitumour activity was assessed after four days of treatment with the compounds using a propidium iodide based monolayer assay. Potency is expressed as absolute IC50 values, calculated by non-linear regression analysis following testing in triplicate. The seventeen inhibitors were tested at 10 concentrations in half-log increments up to 100 μM in triplicate.
(§2) A modified propidium iodide (PI) based monolayer assay was used to assess the anti-cancer activity of the compounds. Briefly, cells were harvested from exponential phase cultures, counted and plated in 96-well flat-bottom microtiter plates at a cell density of 8.000–12.000 cells/well. After a 24 h recovery period to allow the cells to resume exponential growth, 10 μl of culture medium (six control wells/plate) or culture medium with test compound were added. The compounds were applied in half-log increments at 10 concentrations in triplicate. After a total treatment period of 96 h, cells were washed with 200 μl PBS to remove dead cells and debris. Then, 200 μl of a solution containing 7 μg/mL propidium iodide (PI) was added. After an incubation period of 1–2 h at room temperature, fluorescence (FU) was measured using the EnSpire Multimode Plate Reader (excitation λ = 530 nm, emission λ = 620 nm) to quantify the amount of attached viable cells. IC50 values were calculated by 4-parameter non-linear curve fit using Oncotest Warehouse Software. For calculation of mean IC50 values the geometric mean was used.

[2] = tested on: microtubules in MCF-7 cells; test: Microtubule repolymerisation assay, second variation (no pre-treatment); format: cell-based, human; details: 30 min on ice, then rewarmed 37 °C 30 min in presence of 250 nM compound
Description: (§3) Cold depolymerisation of the tubulin cytoskeleton in vitro, including in MCF-7 cells, can be achieved by relatively short incubations at 4 °C [27], [28], [29]. To test the ability of the compounds to impair microtubule polymerisation, following depolymerisation, two variations of a tubulin re-polymerisation assay were performed. In the first, MCF-7 cells were pre-treated for 6 h with 250 nM of the compounds before being incubated on ice for 30 min then rewarmed to 37 °C for a further 30 min. In the second variation, cells were first incubated on ice then rewarmed to 37 °C in the presence of the compounds (250 nM, 30 min total treatment time). Samples of cells were fixed post-cold depolymerisation and post-warm repolymerisation. In both variations, immunofluorescence for α-tubulin was performed and cells were imaged by confocal microscopy (Fig. 6 and 7). In control and treated cells, incubation on ice for 30 min led to total loss of filamentous tubulin and the protein was diffusely scattered throughout the cytoplasm. […] Upon increasing the temperature to 37 °C for 30 min there was clear repolymerisation of the microtubule network.
Following cell seeding (42 h), the plates were placed on ice for 30 min to cold-depolymerise the tubulin cytoskeleton. Control cold-depolymerised coverslips were then immediately prepared for tubulin immunofluorescence and the remaining coverslips were rewarmed and treated with 250 nM of podophyllotoxin, compound 8e, 8b or 0.01% DMSO for 30 min (37 °C, 5% CO2). Together with the controls these were then subjected to tubulin immunofluorescence.
The media was aspirated and the cells were washed once in ice-cold PBS before being fixed in 100% methanol at −20 °C for 10 min. The cells were then washed thrice in PBS and stored overnight at 4 °C. […]
(§4) Confocal fluorescence microscopy analysis was conducted on a Leica SP5 inverted confocal laser scanning microscope. […] Images were recorded using the sequential scanning mode to prevent fluorescence channel crosstalk/bleed-through. […]

[3] = tested on: microtubules in MCF-7 cells; test: Microtubule repolymerisation assay, first variation (6 h pre-treatment); format: cell-based, human; details: 250 nM 6 h pre-treatment, 30 min on ice, rewarmed 37 °C 30 min
Description: as §3
Following cell seeding (42 h) the media was replaced with drug (or diluent control) containing complete media and cells were treated for 6 h with 250 nM of podophyllotoxin, compound 8e, 8b or 0.01% DMSO. The plates were then placed on ice and cells were incubated at 4 °C for 30 min to depolymerise the tubulin cytoskeleton, [28], [30]. One set of cover slips for each treatment condition was prepared for tubulin immunofluorescence (see protocol below) and the remaining sets of cover slips were returned to the incubator (37 °C, 5% CO2) for 30 min to allow re-polymerisation of microtubules. Tubulin immunofluorescence was performed after the cells had been rewarmed for 30 min (see below). […]
as §4

[4] = tested on: human prostate cancer cell line 22Rv1; test: Oncotest propidium iodide monolayer cell proliferation assay, 22Rv1; format: cell-based; details: mean absolute IC50, 96 h treatment, propidium iodide endpoint, triplicate
Description: as §1, §2

[5] = tested on: microtubules in MCF-7 cells; test: Microtubule immunofluorescence assay (α-tubulin, confocal microscopy); format: cell-based, human; details: 250 nM, 6 h; for effect on tubulin cytoskeleton: MCF-7, interphase cells for 8e and 8b, all cells for podophyllotoxin; for induced defects in dividing cells: MCF-7 dividing cells
Description: In order to investigate the microtubule-destabilising ability of these analogues, experiments were conducted to determine their effects on the subcellular organisation of microtubules in vitro [27]. […] The nuclei of control interphase cells were relatively monomorphic. […] Analogue treated cells in interphase featured shorter microtubule filaments and slightly more disordered microtubule networks than control cells.
Following cell seeding (42 h) the media was replaced with fresh complete media containing 250 nM of podophyllotoxin, compound 8e and 8b or 0.01% DMSO. The cells were treated for 6 h with drug or diluent control then subjected to downstream immunofluorescence analysis (see tubulin immunofluorescence protocol).
The media was aspirated and the cells were washed once in ice-cold PBS before being fixed in 100% methanol at −20 °C for 10 min. The cells were then washed thrice in PBS and stored overnight at 4 °C. The following day cells were incubated in 150 μL of blocking solution (2% FBS [v/v], 2% BSA [w/v] in PBS pH 7.4) for 30 min. Blocking was followed by 1 h incubation with 100 μl of mouse anti-α tubulin antibody diluted 1:2000 in blocking solution. Cells were then washed 3 × 5min in PBS before being incubated with Alexa488 labelled, anti-mouse secondary antibody (1:400) and Hoechst 33342 (1 μg/ml) for 30 min. The cells were washed a final 3 × 5 min in PBS before coverslips were dipped once into PBS, once into dH2O and mounted onto glass slides with 12 μL of mounting medium (Dako oil). Three independent experiments were carried out in duplicate.
Confocal fluorescence microscopy analysis was conducted on a Leica SP5 inverted confocal laser scanning microscope. The microscope was equipped with a 63x oil-immersion objective and the 405 and 488 nm lasers were used. Gain and offset settings were optimised for each fluorescent channel within an experiment. Images were recorded using the sequential scanning mode to prevent fluorescence channel crosstalk/bleed-through. Images were scanned at 100 Hz with a line average of three to reduce noise.

MCF-7 and 22Rv1 = test: Oncotest monolayer assay, results stated over both cell lines; format: cell-based, human; details: cell viability, ten concentrations up to 100 μM, Fig. 3
Description: as §1, §2

[6] = parameters: method as in PMID 3290912; details: cis isomer versus podophyllotoxin; cited from earlier work
[7] = Homo sapiens, MCF7, 96 h, mean absolute IC50, 96 h treatment, propidium iodide endpoint, triplicate, read-out: MCF-7 IC50

SMILES	IC50 [1, 7] [µM]	IC50 ([1]; mean absolute IC50, 96 h treatment, propidium iodide endpoint, triplicate, read-out: MCF-7 IC50) [µM]	repolymerisation of tubulin following cold depolymerisation [2]	repolymerisation of tubulin following cold depolymerisation [3]	IC50 ([4]; Homo sapiens, 22Rv1, 96 h) [nM]	IC50 [4] [nM]	effect on tubulin cytoskeleton [5]	induced defects in dividing cells [5]	concentration-effect curve (MCF-7 and 22Rv1)	IC50 ([1]; Homo sapiens, MCF7, 96 h, read-out: MCF-7 IC50 (μM)) [µM]	less active than podophyllotoxin [6] [fold]
O=C1OC[C@]2(O)Nc3c(c4cccnc4c4ncccc34)[C@@H](c3ccccc3C(F)(F)F)[C@@H]12 (mixture of isomers) [Compound 8e, (9aS, 12aR, 13R) and (9aR, 12aS, 13S) 9a-hydroxy-13-(2-(trifluoromethyl)phenyl)-9a,10,12a,13-tetrahydrofuro[3,4-b]pyrido[3,2-f][1,10]phenanthrolin-12(9H)-one]	0.21	0.209	the microtubule cytoskeleton was able to reform with negligible defects	the microtubule cytoskeleton was still able to reform but mitotic defects and shorter filaments	110	107	more subtle changes in the tubulin filaments and their organisation	aberrations of spindle morphology and polarity, nuclear atypia (pleomorphism, pyknosis) and uncongressed/misaligned chromosomes	sigmoidal concentration-effect curves with low bottom plateaus indicating total cell kill at higher test concentration	–	–
O=C1OC[C@]2(O)Nc3c(c4cccnc4c4ncccc34)[C@@H](c3ccccc3OC(F)(F)F)[C@H]12 (mixture of isomers) [Compound 8b, (9aS, 12aS, 13S) and (9aR, 12aR, 13R) 9a-hydroxy-13-(2-(trifluoromethoxy)phenyl)-9a,10,12a,13-tetrahydrofuro[3,4-b]pyrido[3,2-f][1,10]phenanthrolin-12(9H)-one]	0.288	–	the microtubule cytoskeleton was able to reform with negligible defects	the microtubule cytoskeleton was still able to reform but mitotic defects and shorter filaments	165	–	more subtle changes in the tubulin filaments and their organisation	aberrations of spindle morphology and polarity, nuclear atypia (pleomorphism, pyknosis) and uncongressed/misaligned chromosomes	sigmoidal concentration-effect curves with low bottom plateaus indicating total cell kill at higher test concentration	–	–
COc1cc([C@@H]2c3cc4c(cc3[C@H](O)[C@H]3COC(=O)[C@H]23)OCO4)cc(OC)c1OC [Podophyllotoxin]	–	–	significantly impaired the repolymerisation of tubulin following cold depolymerisation	significantly impaired the repolymerisation of tubulin following cold depolymerisation	–	–	dramatic disruption of the tubulin cytoskeleton	–	–	0.23	–
COc1cc([C@@H]2c3cc4c(cc3[C@H](O)[C@H]3COC(=O)[C@@H]23)OCO4)cc(OC)c1OC [picropodophyllin]	–	–	–	–	–	–	–	–	–	–	100
